Biological target: T1, α-NAGA mutant (Homo sapiens, UniProt P17050, A191L/S188E)
T1 sequence (P17050 with tags, fused parts or gaps S188E/A191L): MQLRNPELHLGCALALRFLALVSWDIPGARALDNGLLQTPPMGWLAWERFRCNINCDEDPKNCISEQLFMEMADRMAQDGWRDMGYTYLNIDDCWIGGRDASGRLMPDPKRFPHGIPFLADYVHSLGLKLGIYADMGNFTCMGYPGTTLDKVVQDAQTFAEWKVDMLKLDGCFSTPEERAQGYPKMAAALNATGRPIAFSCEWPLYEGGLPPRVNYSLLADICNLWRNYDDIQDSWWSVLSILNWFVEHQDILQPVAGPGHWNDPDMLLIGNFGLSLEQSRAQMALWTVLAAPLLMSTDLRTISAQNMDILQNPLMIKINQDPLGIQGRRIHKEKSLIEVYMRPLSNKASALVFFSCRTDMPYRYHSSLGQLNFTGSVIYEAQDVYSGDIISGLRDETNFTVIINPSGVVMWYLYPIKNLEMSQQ
Experiment: Calculation of inhibition constant Ki (Lineweaver-Burk plot)
Format: biochemical
Conditions: substrate 1-8 mM; DGJ 100-400 nM, GBS 200-800 nM; pH 4.6; FIG. 2
Procedure: Enzymatic analysis was carried out by using, as a reaction liquid, 50 ng of an α-NAGA mutant and 0.1 M phosphate-citrate buffer (pH 4.6) in which a 4-methylumbelliferylα-D-galactopyranoside substrate was dissolved at any of concentrations (1, 2, 4, 6, and 8 mM) (the total amount was 50 μl). In measuring inhibitory activity, reaction was carried out with a reaction liquid which contained DGJ at a concentration of 100, 200, or 400 nM or GBS at a concentration of 200, 400, or 800 nM. After the reaction was carried out at 37° C. for 10 minutes, 950 μl of 0.2 M glycine buffer (pH 10.7) was added to stop the reaction. Then, released 4-methylumbelliferone was measured at an excitation wavelength of 355 nm and at a fluorescence wavelength of 460 nm with use of Wallac 1420 ARVO MX Multilabel Counter. From these values, a Lineweaver-Burk plot was prepared and an inhibition constant Ki was calculated from slopes in the plot which correspond to respective concentrations of the inhibitor.

OCC1NCC(O)C(O)C1O [DGJ, (2R,3S,4R,5S)-2-(hydroxymethyl)piperdine-3,4,5-triol]
inhibition pattern from inhibition constant Ki: inhibitory activity by competitive inhibition
